Patent US20250032580A1, “USE OF ADNF POLYPEPTIDES IN THERAPY” (RAMOT AT TEL-AVIV UNIVERSITY LTD., priority 2021, published 2025)
“Also recorded” adds a separate entry of the source.

Tests used:
Tyr mice [1] = assay: Ultrasonic vocalizations (USV) and syntax, DeepSqueak; format: in vivo, mouse; design: key to NAP efficacy: speech impediments: corrections by NAP treatment (+)
Method: USV: On P8, each pup was separated from the dam and placed in an empty cage for 6 minutes, in a quiet room and was recorded using the M500-384 USB Ultrasound Microphone (Petterson, Sweden). Pups were distinguished from one another using the tattoos listed above. After 6 minutes pups were reunited with its dam. Data were analyzed using DeepSqueak. Data were loaded onto DeepSqueak, frequencies between 40-70 kHz were analyzed using the mouse call network V2. Calls were denoised using post hoc denoising network. For syntax analysis, Syntax was classified using Wright K means network. Syntax transition probability charts were generated using DeepSqueak and Matlab. Further USV experiments were performed on P8 pups as previously described (12) with slight modifications.

N1E-115 cells = assay: Polymerized vs. soluble tubulin assay; format: cell-based, mouse; conditions: zinc 400 μM, 4 h, peptide 10^−12 M
Method: Polymerized vs. soluble tubulin assay—To quantify tubulin polymerization and Tau-MT association, a simple assay was performed as previously described. The cells grown to confluence in six-well plates were washed with MT buffer (80 mM PIPES pH 6.8, 1 mM MgCl^2, 2 mM EGTA, 5% Glycerol) and lysed at room temperature for 5 min through centrifugation (300 g), with 150 μl of MT buffer with 0.5% Triton X-100 to extract soluble (cytosolic) tubulin (S). The pelleted cells were rinsed once again with an equal volume of modified RIPA lysis buffer (50 mM Tris-HCL pH 7.4, 150 mM NaCl, 2 mM EGTA, 1% Triton X-100, 0.1% SDS, 0.1% sodium Deoxycholate) to collect the polymerized (cytoskeletal) tubulin (P). The cytosolic and cytoskeletal fractions were each mixed with sample buffer and heated at 95° C. for 5 min. An equal volume of each fraction was analyzed by immunoblotting with Tau, tubulin and actin antibodies, and the results following ECL development were quantified by densitometry (GelQuant.NET software provided by biochemlabsolutions(dot)com).
It is known that in the presence of extracellular zinc NAP protects MT against degradation by promoting Tau binding to the MT shaft. Polymerized vs. soluble tubulin assay was effected to compare protective activities of NAP and SKIP against MT degradation and Tau-MT dissociation (FIGS. 11F-G). After treatments with zinc (400 μM, 4 h) with and without NAP or SKIP (10^−12 M, 4 h) the cellular-tubulin pool was separated into polymerized and soluble tubulin fractions. The amount of Tau, tubulin, and actin was identified by immunoblotting (FIG. 11F), followed by densitometric quantification (FIG. 11G).

Tyr mice [2] = assay: Developmental milestone assessment of Tyr mouse pups; format: in vivo; design: key to NAP efficacy: global developmental delays: corrections by NAP treatment (+)
Method: Animals—Animals were housed under a 12-hour light/dark cycle, with food and water ad-libitum. Mouse pups were subcutaneously administrated with NAP [having an amino acid sequence NAPVSIPQ (SEQ ID NO: 2), 25 μg NAP/1 ml saline] as described (8, 12). At 21 days of age mice were administered daily intranasal NAP in vehicle solution (“DD”—7.5 mg/ml of NaCl, 1.7 mg/ml of citric acid, 3 mg/ml of disodium phosphate dihydrate, and 0.2 mg/ml of 50% benzalkonium chloride solution) (0.5 μg NAP/5p1 DD) (8, 9, 12, and U.S. Pat. No. 10,912,819 to Gozes). These mice continued to behavioral analysis as described hereinbelow. The noninvasive intranasal route was chosen as these experiments required daily handling and administration. Age (weeks) of mice during behavioral experiments (mean±SEM) was as follows: Catwalk-9.23±0.15, grooming-10±0.15, social approach-10.5±0.12, odor-discrimination-12.12±0.13, hanging-wire-13±0.14, hotplate-13.18±0.13. Group size was determined following previous experiments (12). Pups were randomly allocated to either the NAP or DD group according to sex and genotype. All procedures involving animals were conducted under the supervision and approval of the institutional animal care and use committee of Tel Aviv University and the Israeli Ministry of Health.
Developmental milestone assessment and fostering—This experiment included animals from 16 litters in 2 experimental batches. It was performed as previously described (12) with slight modifications. Experimenters were blinded to sex and genotype during experimental procedures. Sexes were grouped if no statistically significant sex differences were discovered.
Developmental milestone assessment: At p1 Tyr pups were tattooed and genotyped for the presence of the Tyr718 mutation and SRY as described above. The same day pups were randomized to either NAP or Saline treatment groups according to genotype and sex results and developmental milestone assessment was performed from p1 to p21. As animal randomization ended up with unequal male/female ratios for certain groups and no statistical differences were found between the sexes in any of the 4 treatment groups (T test), the sexes could not be separated, [That is except for eye opening, where a significant difference was observed between the sexes in the Tyr group (P=0.047, no significance in the other three treatment groups)]. Pup paws were tattooed using a 31-gauge needle and tattoo ink (Ketchum Manufacturing Co., catalog 329AA) for identification on P1 and, until P21, underwent daily measurements for length and weight and observation for eye opening. Pups were injected daily with NAP, 1 hour prior to the tests as previously described^1.
Briefly, for ear twitch reflex, a cotton tip was gently brushed against the tip of the ear three times, between postnatal days 7-15 or until the pup responded correctly for two consecutive days. For air righting reflex, the pup was held up-side down and released ˜10.5 cm above the cage, containing 5 cm of shavings. The test was performed between postnatal days 8-21 or until the pup landed on the shavings with all four paws, for two consecutive days. For surface righting reflex, pups were placed on their backs on a level surface, the test was performed between postnatal days 1-13 until the pups was able to right itself with all four paws on the surface in under a second for two consecutive days. For eye opening, mice were observed daily until both eyes were open (eyelids separated completely). For auditory startle, the pup was placed on a level surface and the experimenter clapped loudly twice until a visible startle response was evident for 2 consecutive days. The test was performed between days 7-18. For cliff aversion, pups were placed on the edge of a small box (approx. 4 cm in height) with both paws protruding over the edge of the box. Pups were allowed 30 sec to avoid the cliff and move themselves backwards. […]

CC[C@H](C)[C@H](NC(=O)[C@H](CO)NC(=O)[C@@H](NC(=O)[C@@H]1CCCN1C(=O)[C@H](C)NC(=O)[C@@H](N)CC(N)=O)C(C)C)C(=O)N1CCC[C@H]1C(=O)N[C@@H](CCC(N)=O)C(=O)O [NAP, NAPVSIPQ]
Number of syllables vocalized (Tyr mice [1]; NAP-treated Tyr males, 8 for WT and Tyr): 10 | Syntax complexity (Tyr mice [1]; P8 Tyr pups, both sexes): powerful corrective effect on both sexes; also recorded: significant improvement with NAP treatment | Total USVs produced (Tyr mice [1]; P8 Tyr pups, females and males): no NAP effects | NAP efficacy: speech impediments (Tyr mice [1]; Tyr mouse (syntax), first symbol of cell): +/+ (syntax) | Syntax (Tyr mice [1]; WT pups, data not shown): minor varied impact | Protection against Tau dissociation from MTs (N1E-115 cells): only NAP exhibited protection | Protection of polymerized tubulin against zinc-induced decay (N1E-115 cells): protected against zinc-induced decay | Rooting reflex (Tyr mice [2]; Tyr mice, data not shown): induced rooting | NAP efficacy: global developmental delays (Tyr mice [2]; Tyr mouse, first symbol of cell): +/+ | Surface-righting, first day of acquisition (Tyr mice [2]; Tyr pups, daily s.c. NAP, WT 8.69±0.42, Tyr 10.14±0.36, mean±SEM): 8.81±0.33 | Air-righting, first day of acquisition (Tyr mice [2]; Tyr pups, daily s.c. NAP, WT 12.96±0.28, Tyr 15.29±0.15, mean±SEM): 14.63±0.38 | Body weight (Tyr mice [2]; WT female mice, data not shown): no effect | Eye opening (Tyr mice [2]; WT females, data not shown): no NAP effect | Developmental milestones in WT littermates (Tyr mice [2]; WT littermates, data not shown): no effect on WT littermates except for the cliff aversion response | Body weight (Tyr mice [2]; female Tyr pups, P1-P21): beneficial effect was visible from P10 and reached significance at P20-21 | Eye opening (day) (Tyr mice [2]; female Tyr pups, Tyr 16±0.37, WT 14.93±0.43): 14.78±0.46 | Eye opening (Tyr mice [2]; males, data not shown): No genotype/NAP effect
